Reference: paper PMC6081452, “Downstream Products are Potent Inhibitors of the Heparan Sulfate 2-O-Sulfotransferase” (Scientific Reports, 2018)
Numbering of substitutions follows the chain as printed.

Legend:
Set-up in all cases: species or system chicken
non-glyc-HS2ST H142A = target: T1, non-glyc-HS2ST H142A (Gallus gallus, UniProt Q76KB1, H142A); assay: BLI equilibrium binding, non-glyc-HS2ST H142A; settings: BLI saturation binding curves, n = 3, ± standard error of fit
T1 construct: made in house; host or cells: E. coli Origami B (DE3)
T1 sequence (Q76KB1 69-356 H142A limits assumed): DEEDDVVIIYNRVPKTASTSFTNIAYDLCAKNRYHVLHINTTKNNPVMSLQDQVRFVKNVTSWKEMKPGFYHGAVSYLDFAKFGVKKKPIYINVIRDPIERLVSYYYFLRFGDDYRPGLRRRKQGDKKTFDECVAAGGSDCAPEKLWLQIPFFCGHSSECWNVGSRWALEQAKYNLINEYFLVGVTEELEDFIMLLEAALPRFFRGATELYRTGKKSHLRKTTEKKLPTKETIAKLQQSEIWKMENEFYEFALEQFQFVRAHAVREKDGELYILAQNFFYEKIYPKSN
Excerpt: (§1) To assess whether the inhibitory compounds interact with the active site, point mutations were introduced in non-glyc-HS2ST (Fig. 4a). Four mutants of the catalytic residue (H142A/E/R/K) were created, along with a mutation of the residue that facilitates 2-O-sulfation of IdoA residues (R189A)[27]. Additionally, a negative control (NC) was generated containing multiple mutations of positively charged residues (R189A, R80E, and R184E) that reduced the net charge of each protein monomer by 5. The extent that the mutations affected affinity provided an indication that the ligand had been bound in the active site (Table 1 and Supplementary Fig. 1). While R189A markedly diminished the affinity for all compounds, the NC mutations reduced affinity to immeasurable levels. Removal of the catalytic side chain (H142A) enhanced the affinity of each compound, compared to the WT, by approximately 2–3-fold. Addition of a positive charge at this location (H142K/R) further enhanced the affinity for each compound, so much so that a KD value could be measured even for 2. The H142E mutation diminished the affinity of 5 by half compared to WT, but its effects were less significant for binding to 3 or 4.
(§2) The chicken HS2ST-Maltose Binding Protein (MBP) fusion protein was expressed and purified according to previous studies. The fusion protein was transformed into E. coli Origami B (DE3) cells, cultured at 37 °C until OD600 reached 0.5, then induced with isopropyl-β-D-thiogalactopyranoside and allowed to grow overnight at 20 °C. Cells were sonicated, followed by a two-step purification procedure. Whole-cell supernatant was passed through an amylose column with Tris buffer (25 mM Tris, 500 mM NaCl, pH 7.5). An elution buffer consisted of Tris Buffer with 40 mM Maltose. The amylose column eluent was concentrated and loaded on a Superdex 200 Increase 10/300 GL with PBS buffer (10 mM sodium phosphate, 150 mM NaCl, pH 7.8) to separate trimeric protein from aggregate and independent MBP (Supplementary Fig. 4). All reported mutations formed homotrimeric complexes according to the SEC profiles, including the negative control (NC = R189A/R80E/R184E). Protein concentration was assessed via UV at 280 nm (MW of trimer ~210 KDa, extinction coefficient ~119,000 M^−1 cm^−1 according to ExPASy ProtParam webtool[56]). The trimeric protein preparation was adjusted to 5% glycerol and stored at −20 °C until use. Additional non-glyc-HS2ST constructs were created with the Q5® Mutagenesis kit (New England Biolabs Inc.; cat. # E0554S) and sequenced at the Georgia Genomics Facility at the University of Georgia.
(§3) The Octet® RED96 system (FortéBio Inc.) was employed to detect the affinity of the enzymes for specific HS targets. […]

non-glyc-HS2ST H142K = target: T2, non-glyc-HS2ST H142K (Gallus gallus, UniProt Q76KB1, H142K); assay: BLI equilibrium binding, non-glyc-HS2ST H142K; settings: BLI saturation binding curves, n = 3, ± standard error of fit
T2 construct: made in house; host or cells: E. coli Origami B (DE3)
T2 sequence (Q76KB1 69-356 H142K limits assumed): T1 sequence (Q76KB1 69-356 H142A limits assumed) with A74K
Excerpt: as §1, §2, §3

non-glyc-HS2ST H142E = target: T3, non-glyc-HS2ST H142E (Gallus gallus, UniProt Q76KB1, H142E); assay: BLI equilibrium binding, non-glyc-HS2ST H142E; settings: for Kd: BLI saturation binding curves, n = 3, ± standard error of fit, — = response too weak to fit
T3 construct: made in house; host or cells: E. coli Origami B (DE3)
T3 sequence (Q76KB1 69-356 H142E limits assumed): T1 sequence (Q76KB1 69-356 H142A limits assumed) with A74E
Excerpt: as §1, §2
The Octet® RED96 system (FortéBio Inc.) was employed to detect the affinity of the enzymes for specific HS targets. Due to the small size of the glycan and the deep HS2ST binding cavity, the glycan and protein were treated as ligand and analyte, respectively. Varyingly sulfated HS fragments conjugated to biotin linkers were purchased from Glycan Therapeutics Inc. with purities greater than 93% according to HPLC (sequences located in Supplementary Table 1). The glycans were immobilized onto streptavidin (SA) labeled biosensors (FortéBio; cat. #18–5019) at 0.5 µg/mL. Experiments were performed at 25 °C in PBS Buffer (10 mM sodium phosphate, 150 mM NaCl, pH 7.8) with a final concentration of 1X Pall Kinetics buffer (FortéBio Inc; cat. #18–1092). Fresh biosensors and protein samples were used for each measurement (no regeneration step). […]

Kd (non-glyc-HS2ST H142A) | Kd (non-glyc-HS2ST H142K) | Kd (non-glyc-HS2ST H142E) | Diminution of affinity by H142E compared to WT (non-glyc-HS2ST H142E; non-glyc-HS2ST H142E versus WT, BLI) | Substance
25 ± 2 nM | 22 ± 2 nM | 140 ± 11 nM | half | GlcNS6S-GlcA-GlcNS6S-GlcA-GlcNS6S-GlcA~ [Compound 5]
460 ± 91 nM | 198 ± 34 nM | > 500 nM | – | GlcNS-GlcA-GlcNS-IdoA2S-GlcNS-GlcA~ [Compound 2]
10 ± 2 nM | 11 ± 2 nM | 19 ± 3 nM | – | GlcNS6S-GlcA-GlcNS3S6S-IdoA2S-GlcNS6S-GlcA~ [Compound 4]
20 ± 3 nM | 15 ± 2 nM | 41 ± 4 nM | – | GlcNS6S-GlcA-GlcNS6S-IdoA2S-GlcNS6S-GlcA~ [Compound 3]
